In ChEMBL document CHEMBL6114979, “Discovery of 3-indolylbenzoquinone derivatives with therapeutic potential for breast cancer” (Bioorg Med Chem, 2025):
Converted amounts (≈) assume the structure as drawn. Structures can show the parent of a compound that is named as a salt.

Assays:
MDA-MB-231 [1] = assay: Antiproliferative activity against human MDA-MB-231 cells assessed as inhibition of cell proliferation incubated for 48 hrs by CCK-8 assay; assay type: functional, cell-based; details: MDA-MB-231, 48 h
HepG2 = assay: Antiproliferative activity against human HepG2 cells assessed as inhibition of cell proliferation incubated for 48 hrs by CCK-8 assay; assay type: functional, cell-based; details: HepG2, 48 h
A549 = assay: Antiproliferative activity against human A549 cells assessed as inhibition of cell proliferation incubated for 48 hrs by CCK-8 assay; assay type: functional, cell-based; details: A549, 48 h
MDA-MB-231 [2] = assay: Induction of cell cycle arrest in human MDA-MB-231 cells assessed as accumulation of cells at S phase at 1 uM incubated for 24 hrs by PI staining based flow cytometric analysis (reference value: 8.71%); assay type: functional
MDA-MB-231 [3] = assay: Induction of apoptosis in human MDA-MB-231 cells assessed as viable cells at 1 uM incubated for 24 hrs by Annexin-V/PI staining based flow cytometric analysis (reference value: 93.37%); assay type: functional; details: read-out: Activity
MDA-MB-231 [4] = assay: Induction of apoptosis in human MDA-MB-231 cells assessed as early apoptotic cells at 1 uM incubated for 24 hrs by Annexin-V/PI staining based flow cytometric analysis (reference value: 2.69%); assay type: functional
MDA-MB-231 [5] = assay: Induction of cell cycle arrest in human MDA-MB-231 cells assessed as accumulation of cells at G0/G1 phase at 1 uM incubated for 24 hrs by PI staining based flow cytometric analysis (reference value: 57.31%); assay type: functional
MDA-MB-231 [6] = assay: Induction of apoptosis in human MDA-MB-231 cells assessed as necrotic cells at 1 uM incubated for 24 hrs by Annexin-V/PI staining based flow cytometric analysis (reference value: 0.71%); assay type: functional
MDA-MB-231 [7] = assay: Induction of cell cycle arrest in human MDA-MB-231 cells assessed as accumulation of cells at G2/M phase at 1 uM incubated for 24 hrs by PI staining based flow cytometric analysis (reference value: 33.98%); assay type: functional
MDA-MB-231 [8] = assay: Induction of apoptosis in human MDA-MB-231 cells assessed as late apoptotic cells at 1 uM incubated for 24 hrs by Annexin-V/PI staining based flow cytometric analysis (reference value: 3.24%); assay type: functional
[9] = Solubility of compound in 0.1 M HCL; assay type: physicochemical
[10] = Solubility of compound in water; assay type: physicochemical
[11] = Toxicity in female Balb/c mouse implanted with mouse 4T1 cells assessed as appearance of tumor metastasis in spleen at 10 mg/kg, ip administered once every 2 days for 14 days by H and E staining based analysis; assay type: organism-based; details: in vivo, 336 h, time 14 day
[12] = Toxicity in female Balb/c mouse implanted with mouse 4T1 cells assessed as appearance of infiltered tumor cells in adipose tissue at 10 mg/kg, ip administered once every 2 days for 14 days by H and E staining based analysis; assay type: organism-based; details: in vivo, 336 h, time 14 day
[13] = Toxicity in female Balb/c mouse implanted with mouse 4T1 cells assessed as change in body weight at 10 mg/kg, ip administered every 2 days; assay type: organism-based; details: in vivo, 48 h
[14] = Toxicity in female Balb/c mouse implanted with mouse 4T1 cells assessed as appearance of spleen wrinkling at 10 mg/kg, ip administered once every 2 days for 14 days; assay type: organism-based; details: in vivo, 48 h, time 2 day
[15] = Toxicity in female Balb/c mouse implanted with mouse 4T1 cells assessed as appearance of tumor metastasis in lung at 10 mg/kg, ip administered once every 2 days for 14 days by H and E staining based analysis; assay type: organism-based; details: in vivo, 336 h, time 14 day
[16] = Toxicity in female Balb/c mouse implanted with mouse 4T1 cells assessed as appearance of irregular necrotic foci in tumor area at 10 mg/kg, ip administered once every 2 days for 14 days by H and E staining based analysis; assay type: organism-based; details: in vivo, 336 h, time 14 day
[17] = Toxicity in female Balb/c mouse implanted with mouse 4T1 cells assessed as appearance of tumor metastasis in liver at 10 mg/kg, ip administered once every 2 days for 14 days by H and E staining based analysis; assay type: organism-based; details: in vivo, 336 h, time 14 day
[18] = Toxicity in female Balb/c mouse implanted with mouse 4T1 cells assessed as appearance of tumor metastasis in kidney at 10 mg/kg, ip administered once every 2 days for 14 days by H and E staining based analysis; assay type: organism-based; details: in vivo, 336 h, time 14 day

| SMILES | IC50 (MDA-MB-231 [1]) | IC50 (HepG2) | IC50 (A549) | further results |
| --- | --- | --- | --- | --- |
| C#CCNC1=C(F)C(=O)C(c2c(C)[nH]c3ccccc23)=C(F)C1=O | 7.82 µM | 50.6 µM | > 100 µM | – |
| Cc1[nH]c2ccccc2c1C1=C(NCCNC(=O)OC(C)(C)C)C(=O)C(F)=C(NCCNC(=O)OC(C)(C)C)C1=O | 10.2 µM | 13.1 µM | 13.8 µM | – |
| Cc1[nH]c2ccccc2c1C1=C(F)C(=O)C(F)=C(F)C1=O | 8.57 µM | 12.4 µM | 14.2 µM | – |
| C#CCNC1=C(F)C(=O)C(NCC#C)=C(c2c(C)[nH]c3ccccc23)C1=O | 15.5 µM | 14.2 µM | 5.21 µM | – |
| Cc1[nH]c2ccccc2c1C1=C(F)C(=O)C(c2c(C)[nH]c3ccccc23)=C(N2CCOCC2)C1=O | 8.9 µM | 12.4 µM | 10.2 µM | – |
| Cc1[nH]c2ccccc2c1C1=C(F)C(=O)C(F)=C(N2CCN(C=O)CC2)C1=O | 8 µM | 5.43 µM | 53.1 µM | – |
| COc1ccc(/C=C\c2cc(OC)c(OC)c(OC)c2)cc1O [COMBRETASTATIN A4] | – | – | – | Activity (MDA-MB-231 [2]): 9.19%; viability at 1 µM (MDA-MB-231 [3]): 79.8%; Activity (MDA-MB-231 [4]): 10.22%; Activity (MDA-MB-231 [5]): 39.37%; Activity (MDA-MB-231 [6]): 1.55%; Activity (MDA-MB-231 [7]): 55.89%; Activity (MDA-MB-231 [8]): 8.43% |
| Cc1[nH]c2ccccc2c1C1=C(N2CCOCC2)C(=O)C(F)=C(N2CCOCC2)C1=O | 8.16 µM | 16.1 µM | 15.4 µM | – |
| COC(=O)/C=C/C(=O)OCCCN1CCN(C2=C(F)C(=O)C(c3c(C)[nH]c4ccccc34)=C(N3CCN(CCCOC(=O)/C=C/C(=O)OC)CC3)C2=O)CC1 | 13.5 µM | 61.4 µM | > 100 µM | – |
| COC(=O)/C=C/OCCNC1=C(F)C(=O)C(c2c(C)[nH]c3ccccc23)=C(NCCOC(=O)/C=C/C(=O)OC)C1=O | 12 µM | 4.44 µM | 7.02 µM | – |
| Cc1[nH]c2ccccc2c1C1=C(F)C(=O)C(c2c(C)[nH]c3ccccc23)=C(F)C1=O | 10.8 µM | 11.3 µM | 15.7 µM | – |
| Cc1[nH]c2ccccc2c1C1=C(F)C(=O)C(F)=C(N2CCCCC2)C1=O | 8.26 µM | 14.5 µM | 32.9 µM | – |
| Cc1[nH]c2ccccc2c1C1=C(Cl)C(=O)C(Cl)=C(N2CCOCC2)C1=O | – | – | – | solubility [9]: 6 µg/mL (≈ 15.3 µM); solubility [10]: 9 µg/mL (≈ 23 µM) |
| Cc1[nH]c2ccccc2c1C1=C(F)C(=O)C(F)=C(NC2CC2)C1=O | 7.96 µM | 10.5 µM | 4.46 µM | – |
| Cc1[nH]c2ccccc2c1C1=C(N2CCOCC2)C(=O)C(c2c(C)[nH]c3ccccc23)=C(N2CCOCC2)C1=O | > 100 µM | 11.3 µM | 10.8 µM | – |

The remaining molecules from weak to strong by IC50 (MDA-MB-231 [1]), led by results:

| IC50 (MDA-MB-231 [1]) | IC50 (HepG2) | IC50 (A549) | SMILES | further results |
| --- | --- | --- | --- | --- |
| 7.4 µM | 8.13 µM | 12.1 µM | Cc1[nH]c2ccccc2c1C1=C(N2CCN(C=O)CC2)C(=O)C(F)=C(N2CCN(C=O)CC2)C1=O | – |
| 7.18 µM | 4.91 µM | 4.76 µM | Cc1[nH]c2ccccc2c1C1=C(F)C(=O)C(F)=C(NCCNC(=O)OC(C)(C)C)C1=O | – |
| 6.97 µM | 4.6 µM | 6.79 µM | COC(=O)/C=C/C(=O)OCCCN1CCN(C2=C(F)C(=O)C(F)=C(c3c(C)[nH]c4ccccc34)C2=O)CC1 | – |
| 6.47 µM | 25 µM | 6.31 µM | COC(=O)/C=C/C(=O)OCCNC1=C(F)C(=O)C(c2c(C)[nH]c3ccccc23)=C(F)C1=O | – |
| 6.14 µM | 6.43 µM | > 100 µM | C#CCNC1=C(F)C(=O)C(F)=C(c2c(C)[nH]c3ccccc23)C1=O | – |
| 5.49 µM | 4.19 µM | 4.93 µM | Cc1[nH]c2ccccc2c1C1=C(NC2CC2)C(=O)C(F)=C(NC2CC2)C1=O | – |
| 4.65 µM | 8.15 µM | 12.5 µM | Cc1[nH]c2ccccc2c1C1=C(F)C(=O)C(F)=C(N2CCNCC2)C1=O | – |
| 4.41 µM | 4.22 µM | 6.8 µM | Cc1[nH]c2ccccc2c1C1=C(N2CCCCC2)C(=O)C(F)=C(N2CCCCC2)C1=O | – |
| 4.27 µM | 7.78 µM | 14.2 µM | Cc1[nH]c2ccccc2c1C1=C(F)C(=O)C(N2CCOCC2)=C(F)C1=O | – |
| 2.34 µM | – | 0.3 µM | COc1cccc2c1C(=O)c1c(O)c3c(c(O)c1C2=O)C[C@@](O)(C(=O)CO)C[C@@H]3O[C@H]1C[C@H](N)[C@H](O)[C@H](C)O1 [DOXORUBICIN HYDROCHLORIDE] | Activity [11]: Toxic; Activity [12]: Toxic; Activity [13]: Toxic; Activity [14]: Toxic; Activity [15]: Toxic; Activity [16]: Toxic; Activity [17]: Toxic; Activity [18]: Toxic |
